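Growth conditions: 96-well plates. Treatment: test compound, 48 hours, 5 concentrations. Analysis: linear interpolation between bracketing concentrations; unreached endpoints set to highest concentration. The concentration for 50% growth inhibition is given as GI50. At the TGI there is no net growth.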
Legend:
Experiment in all cases: growth of human tumour cells (NCI), 48 h; in the data active means GI50 below about 0.43 µM; inactive means the rest
NCI-H226 lung = tested on: NCI-H226 lung
MOLT-4 leukemia = tested on: MOLT-4 leukemia
OVCAR-5 ovarian = tested on: OVCAR-5 ovarian
OVCAR-8 ovarian = tested on: OVCAR-8 ovarian
TK-10 renal = tested on: TK-10 renal
UO-31 renal = tested on: UO-31 renal
HL-60(TB) leukemia = tested on: HL-60(TB) leukemia
SNB-19 CNS = tested on: SNB-19 CNS
NCI/ADR-RES ovarian = tested on: NCI/ADR-RES ovarian
MDA-MB-231 breast = tested on: MDA-MB-231 breast
MDA-MB-435 = tested on: MDA-MB-435
SR leukemia = tested on: SR leukemia
HOP-62 NSCLC = tested on: HOP-62 NSCLC
SK-MEL-5 melanoma = tested on: SK-MEL-5 melanoma
SF-539 CNS = tested on: SF-539 CNS
HOP-92 NSCLC = tested on: HOP-92 NSCLC
SF-295 CNS = tested on: SF-295 CNS
A549 NSCLC = tested on: A549 NSCLC
EKVX NSCLC = tested on: EKVX NSCLC
KM12 colon = tested on: KM12 colon
HCC-2998 colon = tested on: HCC-2998 colon
SN12C renal = tested on: SN12C renal
SK-MEL-2 melanoma = tested on: SK-MEL-2 melanoma
SW-620 colon = tested on: SW-620 colon
DU-145 prostate = tested on: DU-145 prostate
CAKI-1 renal = tested on: CAKI-1 renal
SNB-75 CNS = tested on: SNB-75 CNS
SF-268 CNS = tested on: SF-268 CNS
COLO 205 colon = tested on: COLO 205 colon
RPMI-8226 leukemia = tested on: RPMI-8226 leukemia
K-562 leukemia = tested on: K-562 leukemia
NCI-H23 lung = tested on: NCI-H23 lung
U251 CNS = tested on: U251 CNS
MCF7 breast = tested on: MCF7 breast
SK-MEL-28 melanoma = tested on: SK-MEL-28 melanoma
MALME-3M melanoma = tested on: MALME-3M melanoma
UACC-257 melanoma = tested on: UACC-257 melanoma
T-47D breast = tested on: T-47D breast
NCI-H522 lung = tested on: NCI-H522 lung
RXF 393 renal = tested on: RXF 393 renal
HCT-15 colon = tested on: HCT-15 colon
OVCAR-4 ovarian = tested on: OVCAR-4 ovarian
OVCAR-3 ovarian = tested on: OVCAR-3 ovarian
HCT-116 colon = tested on: HCT-116 colon
PC-3 prostate = tested on: PC-3 prostate
IGROV1 ovarian = tested on: IGROV1 ovarian
M14 melanoma = tested on: M14 melanoma
NCI-H460 lung = tested on: NCI-H460 lung
A498 renal = tested on: A498 renal
CCRF-CEM leukemia = tested on: CCRF-CEM leukemia

C#C[C@]1(O)CC[C@H]2[C@@H]3CC=C4c5sc(-c6ccc(O)c(O)c6)nc5CC[C@]4(C)[C@H]3CC[C@@]21C
16 µM: TGI (OVCAR-3 ovarian)
2.87 µM: TGI (HCT-116 colon)
> 100 µM: TGI (NCI-H226 lung) | TGI (MOLT-4 leukemia) | TGI (OVCAR-5 ovarian) | TGI (TK-10 renal) | TGI (HL-60(TB) leukemia) | TGI (NCI/ADR-RES ovarian) | TGI (MDA-MB-231 breast) | TGI (SR leukemia) | TGI (HOP-62 NSCLC) | TGI (HOP-92 NSCLC) | TGI (A549 NSCLC) | TGI (SN12C renal) | TGI (SW-620 colon) | TGI (DU-145 prostate) | TGI (SF-268 CNS) | TGI (RPMI-8226 leukemia) | TGI (K-562 leukemia) | TGI (NCI-H23 lung) | TGI (OVCAR-4 ovarian) | TGI (PC-3 prostate) | TGI (IGROV1 ovarian) | TGI (CCRF-CEM leukemia)
5.91 µM: TGI (UACC-257 melanoma)
3.64 µM: TGI (NCI-H522 lung)
14.5 µM: TGI (OVCAR-8 ovarian)
4.25 µM: TGI (HCT-15 colon)
5.15 µM: TGI (SK-MEL-5 melanoma)
4.8 µM: TGI (MALME-3M melanoma)
4.19 µM: TGI (SK-MEL-28 melanoma)
active: GI50 (SF-539 CNS) 0.333 µM | GI50 (SF-295 CNS) 0.303 µM | GI50 (SNB-75 CNS) 0.339 µM | GI50 (RPMI-8226 leukemia) 0.348 µM | GI50 (RXF 393 renal) 0.157 µM
1.22 µM: TGI (SF-295 CNS)
0.658 µM: TGI (RXF 393 renal)
14.7 µM: TGI (HCC-2998 colon)
4.42 µM: TGI (U251 CNS)
4.23 µM: TGI (A498 renal)
5.81 µM: TGI (COLO 205 colon)
12 µM: TGI (SK-MEL-2 melanoma)
44.7 µM: TGI (T-47D breast)
55 µM: TGI (EKVX NSCLC) | TGI (KM12 colon)
15.1 µM: TGI (CAKI-1 renal)
12.9 µM: TGI (UO-31 renal)
9.95 µM: TGI (SNB-75 CNS)
6.06 µM: TGI (MCF7 breast)
30.8 µM: TGI (NCI-H460 lung)
inactive: GI50 (NCI-H226 lung) 2.22 µM | GI50 (MOLT-4 leukemia) 0.435 µM | GI50 (OVCAR-5 ovarian) 3.04 µM | GI50 (OVCAR-8 ovarian) 3.3 µM | GI50 (TK-10 renal) 9.21 µM | GI50 (UO-31 renal) 1.43 µM | GI50 (HL-60(TB) leukemia) 1.77 µM | GI50 (SNB-19 CNS) 2.09 µM | GI50 (NCI/ADR-RES ovarian) 2.81 µM | GI50 (MDA-MB-231 breast) 2.97 µM | GI50 (MDA-MB-435) 3.11 µM | GI50 (SR leukemia) 0.659 µM | GI50 (HOP-62 NSCLC) 3.91 µM | GI50 (SK-MEL-5 melanoma) 2.13 µM | GI50 (HOP-92 NSCLC) 3.78 µM | GI50 (A549 NSCLC) 3.33 µM | GI50 (EKVX NSCLC) 2.14 µM | GI50 (KM12 colon) 2.97 µM | GI50 (HCC-2998 colon) 3.67 µM | GI50 (SN12C renal) 3.03 µM | GI50 (SK-MEL-2 melanoma) 2.93 µM | GI50 (SW-620 colon) 2.64 µM | GI50 (DU-145 prostate) 3.03 µM | GI50 (CAKI-1 renal) 2.98 µM | GI50 (SF-268 CNS) 2.47 µM | GI50 (COLO 205 colon) 2.42 µM | GI50 (K-562 leukemia) 1.21 µM | GI50 (NCI-H23 lung) 2.76 µM | GI50 (U251 CNS) 0.68 µM | GI50 (MCF7 breast) 1.09 µM | GI50 (SK-MEL-28 melanoma) 1.39 µM | GI50 (MALME-3M melanoma) 1.63 µM | GI50 (UACC-257 melanoma) 2 µM | GI50 (T-47D breast) 3.27 µM | GI50 (NCI-H522 lung) 1.69 µM | GI50 (HCT-15 colon) 1.26 µM | GI50 (OVCAR-4 ovarian) 3.55 µM | GI50 (OVCAR-3 ovarian) 2.92 µM | GI50 (HCT-116 colon) 1.23 µM | GI50 (PC-3 prostate) 0.833 µM | GI50 (IGROV1 ovarian) 4.18 µM | GI50 (M14 melanoma) 2.09 µM | GI50 (NCI-H460 lung) 3.13 µM | GI50 (A498 renal) 1.76 µM | GI50 (CCRF-CEM leukemia) 0.764 µM
5.87 µM: TGI (M14 melanoma)
1.67 µM: TGI (SF-539 CNS)
22.1 µM: TGI (SNB-19 CNS)
13.2 µM: TGI (MDA-MB-435)

— PubChem BioAssay (NCI)
